Patent US20120328569A1, “INHIBITORS OF HEPATITIS C VIRUS NS5B POLYMERASE” (priority 2010, published 2012)

Each compound was assayed on HCV genotype 1b replicon (assay: HCV replicon assay, cell ELISA with antibody to replicon-encoded NS3/4A (genotype 1b replicon)). Details: Hepatitis C virus, 96 h, read-out: Replicon 1b IC50 (nM), HCV genotype 1b replicon cells, 96 hours incubation, NS3/4A ELISA readout.
Type: cell-based, hepatitis C virus
How it was run: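 Replicon-harbouring cells carrying neomycin phosphotransferase were incubated 96 h with a compound dilution series without G418. Replication was quantified indirectly by a cell ELISA detecting replicon-encoded NS3/4A. IC50 values were calculated relative to DMSO control with a four-parameter fit.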

Compound	IC50 [nM]
CNC(=O)c1c(-c2ccc(F)cc2)oc2cc(N(C)S(C)(=O)=O)c(-c3cccc(-c4nc5ccc(C)cc5[nH]4)c3)cc12 [Example 154, 2-(4-fluorophenyl)-N-methyl-5-[3-(6-methyl-1H-benzimidazol-2-yl)phenyl]-6-[methyl (methylsulfonyl)amino]-1-benzofuran-3-carboxamide]	4
CNC(=O)c1c(-c2ccc(F)cc2)oc2cc(N(C)S(C)(=O)=O)c(-c3cccc(-c4nc5ncccc5o4)c3)cc12 [Example 155, 2-(4-fluorophenyl)-N-methyl-6-(N-methylmethylsulfonamido)-5-(3-(oxazolo[4,5-b]pyridin-2-yl)phenyl)benzofuran-3-carboxamide]	1.1
CNC(=O)c1c(-c2ccc(F)cc2)oc2cc(N(C)S(C)(=O)=O)c(-c3cccc(-c4nc5ccccc5o4)c3)cc12 [Example 156]	6.9
CNC(=O)c1c(-c2ccc(F)cc2)oc2cc(N(C)S(C)(=O)=O)c(-c3cccc(-c4nc5ccccc5o4)c3OC)cc12 [Example 157]	22.7
CNC(=O)c1c(-c2ccc(F)cc2)oc2cc(N(C)S(C)(=O)=O)c(-c3cccc(-c4nc5cc(F)ccc5o4)c3)cc12 [Example 158]	4.8
CNC(=O)c1c(-c2ccc(F)cc2)oc2cc(N(C)S(C)(=O)=O)c(-c3cccc(-c4nc5ccc(F)cc5o4)c3)cc12 [Example 159]	1.8
CNC(=O)c1c(-c2ccc(F)cc2)oc2cc(N(C)S(C)(=O)=O)c(-c3cccc(-c4nc5cccc(F)c5o4)c3)cc12 [Example 160]	7
CNC(=O)c1c(-c2ccc(F)cc2)oc2cc(N(C)S(C)(=O)=O)c(-c3cc(F)cc(-c4nc5cccc(F)c5o4)c3)cc12 [Example 161]	3.7
CNC(=O)c1c(-c2ccc(F)cc2)oc2cc(N(C)S(C)(=O)=O)c(-c3cc(F)cc(-c4nc5cc(Cl)ccc5o4)c3)cc12 [Example 162]	8.2
CNC(=O)c1c(-c2ccc(F)cc2)oc2cc(N(C)S(C)(=O)=O)c(-c3cc(F)cc(-c4nc5ccc(Cl)cc5o4)c3)cc12 [Example 163]	8.5
CNC(=O)c1c(-c2ccc(F)cc2)oc2cc(N(C)S(C)(=O)=O)c(-c3cc(F)cc(-c4nc5cccc(Cl)c5o4)c3)cc12 [Example 164]	16.5
CNC(=O)c1c(-c2ccc(F)cc2)oc2cc(N(C)S(C)(=O)=O)c(-c3cc(F)cc(-c4nc5c(C)cccc5o4)c3)cc12 [Example 165]	4.7
CNC(=O)c1c(-c2ccc(F)cc2)oc2cc(N(C)S(C)(=O)=O)c(-c3cc(F)cc(-c4nc5ccc(C)cc5o4)c3)cc12 [Example 166]	4.4
CNC(=O)c1c(-c2ccc(F)cc2)oc2cc(N(C)S(C)(=O)=O)c(-c3cc(F)cc(-c4nc5cccc(C)c5o4)c3)cc12 [Example 167]	10.4
CNC(=O)c1c(-c2ccc(F)cc2)oc2cc(N(C)S(C)(=O)=O)c(-c3ccc(F)c(-c4nc5ccccc5o4)c3)cc12 [Example 168]	3.9
CNC(=O)c1c(-c2ccc(F)cc2)oc2cc(N(C)S(C)(=O)=O)c(-c3cc(-c4nc5ccccc5o4)ccc3F)cc12 [Example 169]	6.4
CNC(=O)c1c(-c2ccc(F)cc2)oc2cc(N(C)S(C)(=O)=O)c(-c3cccc(-c4nc5cc(Cl)ccc5o4)c3)cc12 [Example 170]	5.2
CNC(=O)c1c(-c2ccc(F)cc2)oc2cc(N(C)S(C)(=O)=O)c(-c3cccc(-c4nc5ccc(Cl)cc5o4)c3)cc12 [Example 171]	6.8
CNC(=O)c1c(-c2ccc(F)cc2)oc2cc(N(C)S(C)(=O)=O)c(-c3cccc(-c4nc5cccc(Cl)c5o4)c3)cc12 [Example 172]	27

Compound	IC50 [nM]
CNC(=O)c1c(-c2ccc(F)cc2)oc2cc(N(C)S(C)(=O)=O)c(-c3cccc(-c4nc5c(C)cccc5o4)c3)cc12 [Example 173]	5.6
CNC(=O)c1c(-c2ccc(F)cc2)oc2cc(N(C)S(C)(=O)=O)c(-c3cccc(-c4nc5ccc(C)cc5o4)c3)cc12 [Example 174]	10.4
CNC(=O)c1c(-c2ccc(F)cc2)oc2cc(N(C)S(C)(=O)=O)c(-c3cccc(-c4nc5cccc(C)c5o4)c3)cc12 [Example 175]	13.8
CNC(=O)c1c(-c2ccc(F)cc2)oc2cc(N(C)S(C)(=O)=O)c(-c3cc(OC)cc(-c4nc5ccccc5o4)c3)cc12 [Example 176]	3.9
CNC(=O)c1c(-c2ccc(F)cc2)oc2cc(N(C)S(C)(=O)=O)c(-c3ccc(Cl)c(-c4nc5ccccc5o4)c3)cc12 [Example 177]	7.4
CNC(=O)c1c(-c2ccc(F)cc2)oc2cc(N(C)S(C)(=O)=O)c(-c3cc(Cl)cc(-c4nc5ccccc5o4)c3)cc12 [Example 178]	7
CNC(=O)c1c(-c2ccc(F)cc2)oc2cc(N(C)S(C)(=O)=O)c(-c3ccc(OC(F)(F)F)c(-c4nc5ccccc5o4)c3)cc12 [Example 179]	7.2
CNC(=O)c1c(-c2ccc(F)cc2)oc2cc(N(C)S(C)(=O)=O)c(-c3cc(-c4nc5ccccc5o4)c(OC)cc3F)cc12 [Example 180]	5
CNC(=O)c1c(-c2ccc(F)cc2)oc2cc(N(C)S(C)(=O)=O)c(-c3cc(F)c(OC)c(-c4nc5ccccc5o4)c3)cc12 [Example 181]	5.7
CNC(=O)c1c(-c2ccc(F)cc2)oc2cc(N(C)S(C)(=O)=O)c(-c3cc(OC)c(OC)c(-c4nc5ccccc5o4)c3)cc12 [Example 182]	2.3
CNC(=O)c1c(-c2ccc(F)cc2)oc2cc(N(C)S(C)(=O)=O)c(-c3ccc(OC)c(-c4nc5ccccc5o4)c3)cc12 [Example 183]	1.5
CNC(=O)c1c(-c2ccc(F)cc2)oc2cc(N(C)S(C)(=O)=O)c(-c3ccc(OC)c(-c4nc5ccc(F)cc5o4)c3)cc12 [Example 185]	2.2
CNC(=O)c1c(-c2ccc(F)cc2)oc2cc(N(C)S(C)(=O)=O)c(-c3ccc(OC)c(-c4nc5cccc(F)c5o4)c3)cc12 [Example 186]	2
CNC(=O)c1c(-c2ccc(F)cc2)oc2cc(N(C)S(C)(=O)=O)c(-c3ccc(OC)c(-c4nc5cc(Cl)ccc5o4)c3)cc12 [Example 187]	2.6
CNC(=O)c1c(-c2ccc(F)cc2)oc2cc(N(C)S(C)(=O)=O)c(-c3ccc(OC)c(-c4nc5ccc(Cl)cc5o4)c3)cc12 [Example 188]	5.1
CNC(=O)c1c(-c2ccc(F)cc2)oc2cc(N(C)S(C)(=O)=O)c(-c3ccc(OC)c(-c4nc5cccc(Cl)c5o4)c3)cc12 [Example 189]	1.9
CNC(=O)c1c(-c2ccc(F)cc2)oc2cc(N(C)S(C)(=O)=O)c(-c3ccc(OC)c(-c4nc5c(C)cccc5o4)c3)cc12 [Example 190]	2.2
CNC(=O)c1c(-c2ccc(F)cc2)oc2cc(N(C)S(C)(=O)=O)c(-c3ccc(OC)c(-c4nc5ccc(C)cc5o4)c3)cc12 [Example 191]	4.1
CNC(=O)c1c(-c2ccc(F)cc2)oc2cc(N(C)S(C)(=O)=O)c(-c3ccc(OC)c(-c4nc5cccc(C)c5o4)c3)cc12 [Example 192]	1.9

Compound	IC50 [nM]
CNC(=O)c1c(-c2ccc(F)cc2)oc2cc(N(C)S(C)(=O)=O)c(-c3ccc(OC(C)C)c(-c4nc5ccccc5o4)c3)cc12 [Example 193]	11.6
CNC(=O)c1c(-c2ccc(F)cc2)oc2cc(N(C)S(C)(=O)=O)c(-c3cc(F)c(F)c(-c4nc5ccccc5o4)c3)cc12 [Example 194]	4.2
CNC(=O)c1c(-c2ccc(F)cc2)oc2cc(N(C)S(C)(=O)=O)c(-c3cc(F)cc(-c4nc5ncccc5o4)c3)cc12 [Example 198]	1.4
CNC(=O)c1c(-c2ccc(F)cc2)oc2cc(N(C)S(C)(=O)=O)c(-c3cc(F)cc(-c4nc5ncc(Cl)cc5o4)c3)cc12 [Example 199]	2.9
CNC(=O)c1c(-c2ccc(F)cc2)oc2cc(N(C)S(C)(=O)=O)c(-c3ccc(F)c(-c4nc5ncccc5o4)c3)cc12 [Example 200]	1.6
CNC(=O)c1c(-c2ccc(F)cc2)oc2cc(N(C)S(C)(=O)=O)c(-c3cccc(-c4nc5ncc(F)cc5o4)c3)cc12 [Example 201]	1.7
CNC(=O)c1c(-c2ccc(F)cc2)oc2cc(N(C)S(C)(=O)=O)c(-c3cccc(-c4nc5ncc(Cl)cc5o4)c3)cc12 [Example 202]	1
CNC(=O)c1c(-c2ccc(F)cc2)oc2cc(N(C)S(C)(=O)=O)c(-c3cc(Cl)cc(-c4nc5ncccc5o4)c3)cc12 [Example 203]	2.4
CNC(=O)c1c(-c2ccc(F)cc2)oc2cc(N(C)S(C)(=O)=O)c(-c3cc(-c4nc5ncccc5o4)ccc3Cl)cc12 [Example 204]	4.5
CNC(=O)c1c(-c2ccc(F)cc2)oc2cc(N(C)S(C)(=O)=O)c(-c3cccc(-c4nc5ncccc5o4)c3OC)cc12 [Example 205]	11.9
CNC(=O)c1c(-c2ccc(F)cc2)oc2cc(N(C)S(C)(=O)=O)c(-c3ccc(OC(F)(F)F)c(-c4nc5ncccc5o4)c3)cc12 [Example 206]	2.1
CNC(=O)c1c(-c2ccc(F)cc2)oc2cc(N(C)S(C)(=O)=O)c(-c3cc(-c4nc5ncccc5o4)c(OC)cc3F)cc12 [Example 207]	2.4
CNC(=O)c1c(-c2ccc(F)cc2)oc2cc(N(C)S(C)(=O)=O)c(-c3ccc(C)c(-c4nc5ncccc5o4)c3)cc12 [Example 208]	1.8
CNC(=O)c1c(-c2ccc(F)cc2)oc2cc(N(C)S(C)(=O)=O)c(-c3cc(C#N)cc(-c4nc5ncccc5o4)c3)cc12 [Example 209]	5.5
CNC(=O)c1c(-c2ccc(F)cc2)oc2cc(N(C)S(C)(=O)=O)c(-c3cc(C)cc(-c4nc5ncccc5o4)c3)cc12 [Example 210]	1.9
CNC(=O)c1c(-c2ccc(F)cc2)oc2cc(N(C)S(C)(=O)=O)c(-c3cccc(-c4nc5cnccc5o4)c3)cc12 [Example 211]	3.3
CNC(=O)c1c(-c2ccc(F)cc2)oc2cc(N(C)S(C)(=O)=O)c(-c3cc(F)cc(-c4nc5cnccc5o4)c3)cc12 [Example 212]	2.6
CNC(=O)c1c(-c2ccc(F)cc2)oc2cc(N(C)S(C)(=O)=O)c(-c3ccc(F)c(-c4nc5cnccc5o4)c3)cc12 [Example 213]	2.5
CNC(=O)c1c(-c2ccc(F)cc2)oc2cc(N(C)S(C)(=O)=O)c(-c3cc(-c4nc5cnccc5o4)ccc3F)cc12 [Example 214]	6.3
